# Numbering of substitutions follows the chain as printed. Values joined by “and” are separate entries in the source; they are usually repeats but may differ in a detail not shown here. Identical values can stand only once. Like-named read-outs stand apart in the source and are kept apart here.
# Columns and labels:
# [1] = target: T1, homomeric olfactory CNGA2 channel (Rattus norvegicus, UniProt Q00195); settings: Finn et al., 1998; cited from earlier work
# T1 construct: host or cells: HEK293 (in the cited work)
# T1 sequence (Q00195 1-664): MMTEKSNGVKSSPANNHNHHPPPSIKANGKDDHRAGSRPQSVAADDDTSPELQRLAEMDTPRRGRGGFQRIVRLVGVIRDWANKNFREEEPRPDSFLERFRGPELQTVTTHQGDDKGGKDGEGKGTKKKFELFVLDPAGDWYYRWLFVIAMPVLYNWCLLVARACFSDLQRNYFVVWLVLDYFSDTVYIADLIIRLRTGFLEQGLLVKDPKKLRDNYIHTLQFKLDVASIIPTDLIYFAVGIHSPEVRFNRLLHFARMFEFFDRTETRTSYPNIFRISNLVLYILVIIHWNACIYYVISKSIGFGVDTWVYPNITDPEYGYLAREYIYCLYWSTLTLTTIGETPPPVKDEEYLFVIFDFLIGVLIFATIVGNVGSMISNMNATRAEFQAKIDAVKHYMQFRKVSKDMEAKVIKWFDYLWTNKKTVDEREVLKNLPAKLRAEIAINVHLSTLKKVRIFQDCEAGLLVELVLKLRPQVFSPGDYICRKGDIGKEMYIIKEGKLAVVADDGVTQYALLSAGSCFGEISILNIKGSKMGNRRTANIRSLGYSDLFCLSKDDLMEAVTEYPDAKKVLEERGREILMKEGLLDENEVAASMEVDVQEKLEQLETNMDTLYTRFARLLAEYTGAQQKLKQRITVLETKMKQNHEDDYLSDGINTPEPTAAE
# [2] = target: T2, rho-tag(39)-Olfr49 (Mus musculus, UniProt Q9Z1V0); assay type: cell-based; settings: for Effect of pre-treatment on (−)citronellal-induced cAMP production: (−)citronellal 10 μM, thapsigargin 1 μM
# T2 construct: PCR-amplified the full-length coding regions of mouse Olfr49 (1-C6, NM010991); rho-tag(39): first 39 amino acids of bovine rhodopsin (N); expressed in transfected cells
# T2 sequence (Q9Z1V0 1-313): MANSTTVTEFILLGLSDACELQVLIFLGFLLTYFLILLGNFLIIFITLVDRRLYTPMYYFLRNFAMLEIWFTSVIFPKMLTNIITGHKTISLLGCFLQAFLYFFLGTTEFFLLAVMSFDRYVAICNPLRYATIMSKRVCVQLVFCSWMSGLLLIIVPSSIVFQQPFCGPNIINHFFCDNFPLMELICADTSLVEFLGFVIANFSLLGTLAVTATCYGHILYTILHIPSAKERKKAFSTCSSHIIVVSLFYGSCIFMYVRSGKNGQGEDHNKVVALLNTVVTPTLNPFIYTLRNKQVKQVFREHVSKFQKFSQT
# Protocol: After 40 hours, the cells were pre-incubated with IBMX (100 μM, 30 min) and exposed to (−)citronellal or isoproterenol (2 min). The pre-stimulation with forskolin was generally omitted.
# The inventors tested the possibility to follow an increase in cGMP by transfecting of the rat particular guanylyl cyclase type B (GC-B) into HeLa-Cx43/CNGA2 cells, for which the C type natriuretic peptide (CNP) is the known agonist (Lucas et al., 2000). […] The quantitative comparison of the relative potencies of the agonists by determining of their EC50 values is a standard method in the GPCR and agonist-classification.
# [3] = test system: rho-tag(20)-M4 chimeric mouse ORs; assay type: cell-based; settings: for Responding OR chimeras: 93 OR chimeras
# [4] = target: T3, CNGA2 channel (Bos taurus, UniProt Q03041); assay: Inhibition of db-cAMP-activated CNGA2-dependent Ca2+ influx into HeLa-Cx43/CNGA2 cells; assay type: cell-based, bovine; settings: for Block of db-cAMP-induced Ca2+ influx by CNGA2: n=2
# T3 construct: expressed in transfected cells
# T3 sequence (Q03041 1-663): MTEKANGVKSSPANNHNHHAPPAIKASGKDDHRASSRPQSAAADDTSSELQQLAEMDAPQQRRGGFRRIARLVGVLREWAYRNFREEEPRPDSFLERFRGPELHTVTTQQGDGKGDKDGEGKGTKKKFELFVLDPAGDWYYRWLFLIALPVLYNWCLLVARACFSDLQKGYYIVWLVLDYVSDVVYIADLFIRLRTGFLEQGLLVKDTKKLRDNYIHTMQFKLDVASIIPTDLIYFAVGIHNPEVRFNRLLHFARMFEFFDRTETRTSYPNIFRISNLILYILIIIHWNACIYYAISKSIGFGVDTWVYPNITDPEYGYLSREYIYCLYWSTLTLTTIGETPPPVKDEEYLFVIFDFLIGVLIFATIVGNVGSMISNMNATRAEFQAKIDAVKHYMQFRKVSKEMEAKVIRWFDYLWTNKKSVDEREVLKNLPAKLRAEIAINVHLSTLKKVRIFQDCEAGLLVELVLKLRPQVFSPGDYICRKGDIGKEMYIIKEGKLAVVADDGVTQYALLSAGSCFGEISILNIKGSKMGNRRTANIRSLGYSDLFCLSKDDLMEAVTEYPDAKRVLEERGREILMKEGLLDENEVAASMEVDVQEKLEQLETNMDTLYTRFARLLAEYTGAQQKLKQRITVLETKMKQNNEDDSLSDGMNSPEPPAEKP
# [5] = target: T2, rho-tag(39)-Olfr49; assay: Odorant-induced Ca2+ influx (FLIPR) in forskolin-pre-treated HeLa-Cx43/CNGA2 cells expressing rho-tag(39)-Olfr49; assay type: cell-based
# [6] = test system: rho-tag(39)-Olfr41; assay type: cell-based, mouse; settings: 10 μM, thapsigargin pre-treated cells
# [7] = test system: mOR261-10; settings: 10 μM, chimera H1 and rho-tag(39)-full length OR, n=3
# [8] = target: T4, mOR267-1 (Mus musculus, UniProt Q8VBW9); settings: chimera F2 and rho-tag(39)-full length OR, n=3
# T4 sequence (Q8VBW9 1-316): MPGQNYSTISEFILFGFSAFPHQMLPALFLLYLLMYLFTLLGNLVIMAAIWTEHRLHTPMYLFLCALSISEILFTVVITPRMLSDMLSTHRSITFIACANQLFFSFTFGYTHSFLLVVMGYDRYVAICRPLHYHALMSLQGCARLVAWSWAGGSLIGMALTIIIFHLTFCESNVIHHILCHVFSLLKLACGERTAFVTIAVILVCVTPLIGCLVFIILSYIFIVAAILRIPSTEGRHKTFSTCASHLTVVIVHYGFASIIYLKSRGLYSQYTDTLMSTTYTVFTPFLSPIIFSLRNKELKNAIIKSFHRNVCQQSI
# [9] = target: T5, Olfr49 (Mus musculus, UniProt Q9Z1V0); settings: n=3
# T5 sequence (Q9Z1V0 1-313): T2 sequence (Q9Z1V0 1-313)
# [10] = target: T6, Olfr43 (Mus musculus, UniProt Q7TRX1); settings: 1 μM, chimera A1 and rho-tag(39)-full length OR, n=3
# T6 sequence (Q7TRX1 1-313): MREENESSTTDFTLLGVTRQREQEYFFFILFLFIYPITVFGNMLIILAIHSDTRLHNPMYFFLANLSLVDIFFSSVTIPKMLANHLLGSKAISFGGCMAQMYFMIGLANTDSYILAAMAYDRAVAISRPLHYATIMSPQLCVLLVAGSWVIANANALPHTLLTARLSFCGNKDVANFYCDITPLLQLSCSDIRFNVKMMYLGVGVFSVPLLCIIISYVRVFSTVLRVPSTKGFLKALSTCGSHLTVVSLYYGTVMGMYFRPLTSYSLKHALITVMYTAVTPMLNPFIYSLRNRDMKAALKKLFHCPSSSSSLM
# [11] = target: T7, rho-tag(39)-Olfr43 (Mus musculus, UniProt Q7TRX1)
# T7 sequence (Q7TRX1 1-313): T6 sequence (Q7TRX1 1-313)
# Text: (§1) In in situ RNA hybridisation-experiments, the inventors examined the gene expression of Olfr41, Olfr43, Olfr49, MOR261-10, MOR267-1, and Ors6 in OSN of the mouse OE.
# [12] = target: T8, rho-tag(39)-LOC331758 (Mus musculus, UniProt Q7TRX2)
# T8 sequence (Q7TRX2 1-313): T6 sequence (Q7TRX1 1-313) with T10I, G106S, A108G, P306H
# Text: as §1
# [13] = target: T9, rho-tag(39)-OR1A1 (Homo sapiens, UniProt Q9P1Q5)
# T9 sequence (Q9P1Q5 1-309): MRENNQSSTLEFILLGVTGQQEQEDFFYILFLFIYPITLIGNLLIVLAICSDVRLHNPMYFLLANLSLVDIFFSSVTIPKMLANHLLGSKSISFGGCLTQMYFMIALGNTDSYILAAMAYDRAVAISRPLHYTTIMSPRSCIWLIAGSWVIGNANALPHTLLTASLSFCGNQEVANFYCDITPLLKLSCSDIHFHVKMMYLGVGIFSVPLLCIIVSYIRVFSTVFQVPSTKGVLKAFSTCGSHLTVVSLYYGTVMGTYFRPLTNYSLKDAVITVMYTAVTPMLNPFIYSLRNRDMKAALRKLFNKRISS
# Text: as §1
# [14] = test system: rho-tag(39)-Ors6; assay type: cell-based, mouse; settings: 10 μM, thapsigargin pre-treated cells
# [15] = EC50 for odorant-induced Ca2+ influx, stably expressed rho-tag(39)-Olfr49, forskolin-pre-treated
compound,measurement,setting,value
Nc1nc2c(ncn2[C@@H]2O[C@@H]3COP(=O)(O)O[C@H]3[C@H]2O)c(=O)[nH]1 [cGMP],EC50,[1],3 µM
same,EC50 for cGMP lower than the one for cAMP,[1],20 fold
C/C=C(/C)C(=O)O[C@H]1C(C)=C2[C@H]([C@@H]1OC(=O)CCCCCCC)[C@@](C)(OC(C)=O)C[C@H](OC(=O)CCC)[C@@]1(O)[C@H]2OC(=O)[C@@]1(C)O [thapsigargin],Effect of pre-treatment on (−)citronellal-induced cAMP production,[2]; cells transfected with hG-alpha-olf,reduced
same,Effect of pre-treatment on (−)citronellal-induced cAMP production,"[2]; cells without hG-alpha-olf, compared to cells without pre-treatment, forskolin 2.5 μM",significantly increased
CC(C)=CCCC(C)CC(=O)O (centres unmarked) [citronellic acid],Response of the 93 OR chimeras,"[3]; up to 10 μM, n=2",None of the 93 OR chimeras responded
same,Block of db-cAMP-induced Ca2+ influx by CNGA2,[4]; at up to 300 μM,did not block
"CC(C)=CCCC(C)CC=O (single isomer, unassigned; (+)) [(+)citronellal]",EC50,[5]; [15],2.6 ± 0.4 µM
CCCCCCC=O [heptanal],EC50,"[5]; stably expressed rho-tag(39)-Olfr49, forskolin-pre-treated, read-out: EC50 for odorant-induced Ca2+ influx",6 ± 1 µM
same,Ca2+ influx,[6],triggered the Ca2+ influx
same,Block of db-cAMP-induced Ca2+ influx by CNGA2,[4]; at up to 100 μM,did not block
CC(C)=CCCC(C)CCO (stereo not drawn) [beta-citronellol],EC50,[5]; [15],32.8 ± 2.7 µM
same,Response in single cell Ca2+ imaging,[7],selectively responded
same,Response in single cell Ca2+ imaging,[8]; 10 μM,selectively responded
same,Responding OR chimeras,[3]; odorant 10 μM,22%
same,Block of db-cAMP-induced Ca2+ influx by CNGA2,[4]; at up to 3 mM,did not block
same,Response in single cell Ca2+ imaging,[9]; 10 μM,selectively responded
"CC(C)=CCCC(C)CC=O (single isomer, unassigned; (-)) [(−)citronellal]",EC50,"[5]; EC50 for (−)citronellal-induced Ca2+ influx, transiently transfected rho-tag(39)-Olfr49, forskolin-pre-treated",3.9 µM and 4 µM
same,EC50,[5]; [15],2.1 µM
same,Response in single cell Ca2+ imaging,[8]; 1 μM,selectively responded
same,Response in single cell Ca2+ imaging,[10],selectively responded
same,EC50,[11],2.1 ± 0.2 µM
same,Responding OR chimeras,[3]; odorant 1 μM,3%
same,Responding OR chimeras,[3]; odorant 3 μM,43%
same,Percentage of responding ORs,"[3]; subgroup of 67 OR chimeras, odorant 1 μM, n=1",9%
same,EC50,[12],3.2 ± 0.8 µM
same,IC50,"[4]; IC50 for block of db-cAMP-induced Ca2+ influx by CNGA2, db-cAMP-pre-treated HeLa-Cx43/CNGA2 cells, FLIPR",108 µM and 132 µM
same,Response in single cell Ca2+ imaging,[9]; 1 μM,selectively responded
same,EC50,[13],2.2 ± 0.4 µM
same,EC50,"[2]; EC50 for (−)citronellal-induced cAMP production, rho-tag(39)-Olfr49 stable cell line, n=2",0.4 µM and 0.49 µM
CCCCCCCC=O [octanal],EC50,[5]; [15],3.7 ± 0.1 µM
same,Block of db-cAMP-induced Ca2+ influx by CNGA2,[4]; at up to 100 μM,did not block
O=C(O)CCCCCCCC(=O)O [nonandione acid],Ca2+ influx,[14],induced a Ca2+ influx
